In patent US11046721B2, “Ruthenium-based photolinkers and methods of use” (The Trustees of the University of Pennsylvania, priority 2014, dated 2021):

What was measured:
[1] = reported, Zayat et al. 2003; cited from earlier work
chordin (chd) = test: chd knockdown phenotype in microinjected zebrafish embryos; type: in vivo; conditions: incubated in the dark; for Phenotype of embryos: injected at 1-cell stage, 24-28 hpf
Experimental: FIG. 15 is a series of images depicting zebrafish, including the chd-MO knockdown phenotype. Zebrafish embryos were injected at the 1-cell stage with 0.51 mM chd-MO and imaged at 24 hpf. […] Embryos scored as normal had V-shaped somites, and normal head and tail development. Severe was identified by decreased head size, U-shaped somites, and a large blood island on the tail. The moderate and mild phenotypes were identified by U-shaped somites and a medium or small blood island on the tail.
(§1) FIG. 16A is an image of a wildtype embryo, uninjected. […] All embryos were injected at 1-cell stage. […] MO Control: Zebrafish embryos were injected at the 1-cell stage with 0.25 mM ntl-MO and imaged at 24 hpf. Ru-MO-ntl: Zebrafish embryos were injected at the 1-cell stage with 0.25 mM Ru-MO-ntl. Half of the embryos were irradiated (450 nm, 14 mW/cm^2, 5 min) at 1 hpf, while the other half were incubated in the dark. Embryos were scored for phenotype at 24 hpf and compared to wildtype.
Zebrafish embryos were obtained. All embryos obtained were TLF×TLF WT. Zebrafish embryo injection solutions were prepared to contain a final concentration of 0.1 M KCl and 0.25% phenol red dye. All injections were performed at the one-cell stage and injected into the cell compartment only. A Harvard Apparatus PLI-100 pico-injector was used to inject controlled volumes. Injection volume was calibrated to dispense 5 nL per embryo. Zebrafish embryos were incubated at 28° C. in E3 zebrafish medium. […]
MO-chd or Ru-cMO-chd (514 pmol/μL) was microinjected into 1-cell-stage zebrafish embryos, which were incubated at 28° C. in the dark and at 24 hours post-fertilization (hpf), scored for phenotypic response and imaged using a previously reported method (Westerfield, from “The Zebrafish Book. A guide for the Laboratory Use of Zebrafish (Danio rerio).” 4th ed.; University of Oregon Press, 2000). Embryos scored as normal had V-shaped somites, and normal head and tail development. […]

[2] = Selective photoactivation of Ru photolinkers (FIG. 25B); type: physicochemical
Excerpt: FIG. 25, comprising FIG. 25A-25B, depicts exemplary compounds of the invention.
Compounds [Ru(bpy)2(4-pentynenitrile)2][Cl]2 (Ru420) and [Ru(biq)2(4-pentynenitrile)2][Cl]2 (Ru530) are compounds of the invention which are useful for multiplexing of DNA and morpholino oligonucleotides (FIG. 25A).

[3] = 450-nm light, 53 mW/cm^2, 80 μM, 1.5 mL, stirred
Experimental: Light source: 450 nm laser (14 mW/cm^2), 14 μM RuBEP in water, 0.2 OD.
A sapphire Galaxy Blue handheld laser was purchased from Beam of Light Technologies (Oregon, USA) and used to determine the quantum yield of RuBEP. Measured power at the sample was 53 mW/cm^2, with a maximum output wavelength of 450 nm.
Photodissociation of 3EP from RuBEP was monitored by LCMS (FIG. 4), UV-Vis (FIG. 6B) and ^1H and ^13C NMR (FIG. 5) spectroscopies. Upon continuous irradiation with 450-nm light (53 mW/cm^2, focused to 0.5 cm^2), the λmax red-shifted from 450 nm to 473 nm (FIG. 6B).
The formula for fitting the initial kinetics of the photoreaction is as follows:
[formula] Where: P1=net power of the laser during the trial (mW) E=energy of 450 nm light (J/photon) εs=extinction coefficient of RuBEP (starting material) at 475 nm=1800 M^−1cm^−1 εp=extinction coefficient of Rubpy2(3EP)(H2O)(product) at 475 nm=3800 M^−1cm^−1

notail (ntl) = test: ntl knockdown phenotype in microinjected zebrafish embryos; type: in vivo; conditions: 0.25 mM injected at 1-cell stage, 24 hpf
Experimental: as §1
FIG. 17 is a series of images depicting zebrafish, including the ntl-MO knockdown phenotype. Zebrafish embryos were injected at the 1-cell stage with 0.25 mM ntl-MO and imaged at 24 hpf. […] Class 2 was identified by U-shaped somites, a shortened posterior axis, with the notochord still present.
FIG. 19 is a graph depicting Ru-cMO-ntl in vivo data. MO Control:Zebrafish embryos were injected at the 1-cell stage with 0.25 mM ntl-MO and imaged at 24 hpf. Ru-cMO-ntl:Zebrafish embryos were injected at the 1-cell stage with 0.25 mM Ru-cMO-ntl. Half of the embyros were irradiated (450 nm, 14 mW/cm^2, 5 min) at 1 hpf, while the other half were incubated in the dark. Embryos were scored for phenotype at 24 hpf and compared to wildtype.
Zebrafish embryos were obtained. All embryos obtained were TLF×TLF WT. […]

For `[Cl-].[Cl-].[Ru+2].c1ccc(-c2ccccn2)nc1.c1ccc(-c2ccccn2)nc1.c1ccncc1.c1ccncc1` [Ru(bpy)2(pyr)2Cl2], the “Quantum yield of ligand exchange” value [1] is listed as 0.4.
In the case of “MO-chd: linear antisense morpholino targeting chordin, ATCCACAGCAGCCCCTCCATCATCC (SEQ ID NO: 4) (all phosphorodiamidate morpholino (PMO))”, the “Embryos with normal phenotype” value (chordin (chd); MO-chd control injections, 24 hpf) is reported as roughly 5%, the Phenotype of embryos (chordin (chd); listed as Bis-azido chd-MO) is reported as “chd knockdown phenotype” and the Phenotype of embryos (chordin (chd); listed as chd-MO) is reported as “severe to mild”.
In the case of “[Ru(bipyridine)2(3-ethynyl- pyridine)2]^2+ [RuBEP]”, the Selective activation [2] is reported as “can be selectively activated” and the “Time to complete photolysis of bulk solution” value [3] is reported as 5 min.
For “[Ru(bipyridine)2(4- pentynenitrile)2]^2+ [Ru420]”, the Selective activation [2] was “can be selectively activated”.
With “[Ru(biquinoline)2(4- pentynenitrile)2]^2+ [Ru530]” the Selective activation [2] was “can be selectively activated”.
For “ntl-MO: linear antisense morpholino targeting notail, AGCTTGAGATAAGTCCGACGATCCT (SEQ ID NO: 7) (all phosphorodiamidate morpholino (PMO))”, the ntl knockdown phenotype (notail (ntl)) was “severe (class 4) to mild (class 2)”.
